From ChEMBL document CHEMBL1201862, “PubChem BioAssay data set” (2004)
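The compound was tested at five concentrations on cells cultured in 96-well plates, with a 48-hour exposure period. GI50: concentration for 50% inhibition of growth.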 Calls of active or inactive are those of the source. No stated cut-off is given here; in the data, active = GI50 up to about 1.1 µM and inactive = higher.

What was measured:
Assay in all cases: NCI tumour cell line growth inhibition, 48 h
DMS-114 = test system: DMS-114
HOP-18 = test system: HOP-18
KM-20L2 = test system: KM-20L2
LXFL 529 = test system: LXFL 529
M19-MEL = test system: M19-MEL
SNB-78 = test system: SNB-78
DMS-273 = test system: DMS-273
RXF 631 = test system: RXF 631
XF498 = test system: XF498

Measured: GI50

Nc1c(-c2nc3ccccc3s2)[n+]([O-])c2ccccc2[n+]1[O-]
inactive: DMS-114 34.2 µM | HOP-18 23.5 µM | KM-20L2 48.2 µM | LXFL 529 28.4 µM | M19-MEL 28 µM | SNB-78 63 µM

O=C(Nc1ccc(Cl)cc1C(=O)O)c1ccc([N+](=O)[O-])cc1
inactive: DMS-114 9.08 µM | DMS-273 27.7 µM | KM-20L2 21.8 µM | LXFL 529 15.5 µM | M19-MEL 21.4 µM | RXF 631 30.1 µM | SNB-78 22.4 µM | XF498 24.9 µM

Cc1noc(C)c1CCCOC1COc2ccccc2OCCOCCOc2ccccc2OC1
inactive: DMS-114 > 100 µM | DMS-273 > 100 µM | HOP-18 > 100 µM | KM-20L2 > 100 µM | LXFL 529 > 100 µM | M19-MEL > 100 µM | SNB-78 > 100 µM | XF498 > 100 µM

CCOC(=O)Nn1c(C)cc(C(=O)OC)c1C
inactive: DMS-114 > 100 µM | DMS-273 > 100 µM | KM-20L2 > 100 µM | LXFL 529 > 100 µM | M19-MEL > 100 µM | SNB-78 > 100 µM | XF498 > 100 µM

Cc1cc2cc(Cl)ccc2nc1C(=O)c1ccccc1
inactive: DMS-114 > 100 µM | DMS-273 > 100 µM | HOP-18 > 100 µM | KM-20L2 > 100 µM | LXFL 529 > 100 µM | M19-MEL > 100 µM | RXF 631 > 100 µM | SNB-78 > 100 µM | XF498 > 100 µM

CC(=O)Nc1ccc(/C=c2\sc3nnc(-c4cccnc4)n3c2=O)cc1
inactive: DMS-114 17.9 µM | DMS-273 25.1 µM | HOP-18 19.1 µM | KM-20L2 17.5 µM | LXFL 529 15.9 µM | M19-MEL 18.1 µM | RXF 631 18.1 µM | SNB-78 34.4 µM

C[N+]1(C)C/C(=C\c2ccncc2)C(=O)/C(=C/c2ccncc2)C1
inactive: DMS-114 > 100 µM | DMS-273 > 100 µM | HOP-18 > 100 µM | KM-20L2 > 100 µM | LXFL 529 > 100 µM | M19-MEL > 100 µM | SNB-78 > 100 µM

O=C1c2ccc(O)cc2C(=O)c2ccc(O)cc21
inactive: DMS-114 95.9 µM | DMS-273 49.2 µM | LXFL 529 87.3 µM | M19-MEL > 100 µM | RXF 631 75 µM | SNB-78 > 100 µM | XF498 > 100 µM

COc1ccc(C(=O)N2c3ccccc3N(C)n3cccc3C2CC(=O)O)cc1 (centres undefined)
inactive: DMS-114 > 100 µM | DMS-273 > 100 µM | KM-20L2 > 100 µM | LXFL 529 > 100 µM | M19-MEL > 100 µM | SNB-78 > 100 µM

BrCC[N+]12CCCN1CCC2
inactive: DMS-273 18.7 µM | HOP-18 8.73 µM | KM-20L2 20.6 µM | LXFL 529 2.88 µM | M19-MEL 16.9 µM | RXF 631 21.1 µM | SNB-78 16.2 µM

Cc1ccc(NC(=O)C(=O)C2C(=O)NC(=O)NC2=O)cc1C
inactive: DMS-273 > 100 µM | HOP-18 > 100 µM | KM-20L2 > 100 µM | LXFL 529 > 100 µM | M19-MEL > 100 µM | SNB-78 > 100 µM | XF498 > 100 µM

COc1ccc(/C=C/C(=O)c2c(-c3ccccc3)nn(C)c(=O)c2N2CCCCC2)cc1
inactive: DMS-114 14.6 µM | DMS-273 15.9 µM | HOP-18 20.1 µM | KM-20L2 14.3 µM | LXFL 529 16.6 µM | M19-MEL 25.3 µM | RXF 631 23.5 µM

CC(C)c1ccc(/C=C(\NC(=O)c2ccccc2)c2nc3ccccc3[nH]2)cc1
inactive: DMS-114 25.3 µM | DMS-273 37.9 µM | HOP-18 26.4 µM | KM-20L2 58.1 µM | LXFL 529 31.8 µM | M19-MEL 33.3 µM | RXF 631 23.6 µM | SNB-78 42.9 µM | XF498 55.3 µM

O=C(O)CCC(=O)N1C/C(=C\c2ccccc2)C(=O)/C(=C/c2ccccc2)C1
inactive: DMS-114 2.18 µM | DMS-273 2.16 µM | HOP-18 5.55 µM | KM-20L2 2.92 µM | LXFL 529 2.67 µM | M19-MEL 1.75 µM | RXF 631 3.66 µM | SNB-78 7.24 µM | XF498 2.7 µM

CCOC(=O)CC1=N/C(=N/c2cc(Cl)ccc2Cl)SC1
inactive: DMS-114 38.5 µM | DMS-273 > 100 µM | HOP-18 > 100 µM | KM-20L2 > 100 µM | LXFL 529 > 100 µM | M19-MEL > 100 µM | SNB-78 > 100 µM | XF498 > 100 µM

O=C(/C=C/c1c(O)ccc2ccccc12)c1ccccc1
inactive: DMS-114 > 100 µM | DMS-273 > 100 µM | HOP-18 36.8 µM | KM-20L2 > 100 µM | LXFL 529 > 100 µM | M19-MEL 29.4 µM | RXF 631 > 100 µM | SNB-78 > 100 µM | XF498 > 100 µM

C/C(=N/NC(=O)c1ccccc1O)c1ccc(/C(C)=N\NC(=O)c2ccccc2O)c2nc3cc(C)c(C)cc3nc12
inactive: DMS-114 > 100 µM | DMS-273 > 100 µM | HOP-18 44.2 µM | KM-20L2 > 100 µM | LXFL 529 > 100 µM | M19-MEL > 100 µM | RXF 631 > 100 µM | SNB-78 > 100 µM | XF498 > 100 µM

COc1ccc(C2=Nc3ccccc3NC(=O)C2)cc1
inactive: DMS-114 20.7 µM | DMS-273 27.4 µM | HOP-18 > 100 µM | KM-20L2 55.7 µM | LXFL 529 > 100 µM | M19-MEL 48.3 µM | RXF 631 > 100 µM | SNB-78 25.2 µM | XF498 20.1 µM

Cc1cc2c(c(N)c1C)C(=O)c1ccccc1C2=O
inactive: DMS-114 32.1 µM | DMS-273 24.4 µM | HOP-18 1.56 µM | KM-20L2 25 µM | LXFL 529 28.8 µM | M19-MEL 65.5 µM | SNB-78 > 100 µM

C/C(=N\NC(=N)N)C(CN(C)C)C(c1ccccc1)c1c(O)c2ccccc2oc1=O (centres undefined)
inactive: DMS-114 > 100 µM | DMS-273 > 100 µM | HOP-18 > 100 µM | KM-20L2 > 100 µM | LXFL 529 > 100 µM | M19-MEL > 100 µM | SNB-78 > 100 µM | XF498 > 100 µM

O=C1C2c3[nH]c4ccccc4c3[C@@H]3CCCCCCCCCCC3C2C(=O)N1c1ccccc1 (some centres undefined)
inactive: DMS-114 16.9 µM | DMS-273 27.3 µM | HOP-18 41.5 µM | LXFL 529 13.5 µM | M19-MEL 22.2 µM | RXF 631 12.6 µM | SNB-78 8.53 µM

COc1ccc(-c2nnc(-c3c(C)n(C)n(-c4ccccc4)c3=O)o2)cc1
inactive: DMS-114 > 100 µM | DMS-273 > 100 µM | HOP-18 > 100 µM | KM-20L2 > 100 µM | LXFL 529 > 100 µM | M19-MEL > 100 µM | SNB-78 68.7 µM | XF498 > 100 µM

CC(=O)OC1[C@H]2c3cc4c(cc3CN3CCC(=C[C@@H]1O)C23)OCO4 (some centres undefined)
inactive: DMS-273 > 100 µM | KM-20L2 77.8 µM | LXFL 529 48.6 µM | M19-MEL > 100 µM | SNB-78 54.2 µM

c1ccc(C2C3=C(Nc4ncnn42)c2ccccc2C3)cc1 (centres undefined)
inactive: DMS-114 7.1 µM | DMS-273 12.1 µM | HOP-18 56.1 µM | KM-20L2 7.89 µM | M19-MEL 9.75 µM | RXF 631 > 100 µM | SNB-78 > 100 µM | XF498 15.4 µM

COC[C@H](C)/N=C/N1CCc2ccccc2C1(Cc1ccccc1)Cc1ccccc1
inactive: HOP-18 11 µM | KM-20L2 10.8 µM | LXFL 529 11.8 µM | RXF 631 13.5 µM | XF498 12.3 µM

COc1cc(/C=C/c2ccc(C)cc2)cc(OC)c1OC
inactive: DMS-114 5.9 µM | DMS-273 3.79 µM | HOP-18 11.4 µM | KM-20L2 2.09 µM | LXFL 529 5.58 µM | M19-MEL 9.98 µM | SNB-78 2.14 µM | XF498 6.49 µM

COc1cc(C2C(Cl)C(=O)N2NC(=O)Cc2ccccc2)cc(Br)c1O (centres undefined)
inactive: DMS-114 45 µM | DMS-273 > 100 µM | HOP-18 71.6 µM | KM-20L2 > 100 µM | LXFL 529 86.3 µM | M19-MEL > 100 µM | SNB-78 > 100 µM | XF498 > 100 µM
